Test results from patent EP4596574A1, “GLP-1/GCG/GIP TRIPLE-RECEPTOR AGONIST AND USE THEREOF” (Sunshine Lake Pharma Co., Ltd., priority 2022, dated 2024).
Starred links: 1 amine or outer side, 2 acyl side, 3 side chain; linkers in the order of their positions; H or OH if unused. Non-standard residues stand in square brackets, D forms with d. Residues, ends and D or L forms follow the SMILES beside them. Groups on a side chain read outwards from the residue. *: point of attachment. C20 diacid = O=C(O)CCCCCCCCCCCCCCCCCCC(=O)*; αMePhe(2-F) = C[C@](N)(Cc1ccccc1F)C(=O)O; γGlu = O=C(O)[C@H](CCC(=O)[*:2])N[*:1]; AEEA = NCCOCCOCC(=O)O; Aib = CC(C)(N)C(=O)O

Experiments:
Assay type in all cases: cell-based
GCGR = biological target: T1, GCGR (Homo sapiens, UniProt P47871); assay: In vitro cell activity, cAMP production in HEK293 cells expressing GCGR; conditions: HEK293-GCGR cells, cAMP; read-out: GCGR (EC50)
T1 construct: expressed in transfected cells; host or cells: HEK293 (HEK293-GCGR)
T1 sequence (P47871 26-477, species assumed): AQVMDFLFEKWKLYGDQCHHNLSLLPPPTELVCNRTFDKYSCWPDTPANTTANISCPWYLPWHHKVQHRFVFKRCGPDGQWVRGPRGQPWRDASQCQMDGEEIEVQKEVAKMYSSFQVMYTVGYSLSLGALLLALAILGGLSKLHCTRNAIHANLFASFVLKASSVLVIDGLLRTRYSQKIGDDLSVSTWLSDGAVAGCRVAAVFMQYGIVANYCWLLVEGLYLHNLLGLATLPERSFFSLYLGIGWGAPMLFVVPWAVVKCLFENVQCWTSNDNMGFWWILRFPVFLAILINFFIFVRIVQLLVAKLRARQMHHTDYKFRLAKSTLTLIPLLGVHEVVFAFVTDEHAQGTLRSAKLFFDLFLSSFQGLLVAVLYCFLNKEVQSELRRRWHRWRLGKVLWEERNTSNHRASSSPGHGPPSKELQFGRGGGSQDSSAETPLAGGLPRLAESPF
Description: (§1) After they were completely thawed within 1.5 minutes, the cells were added dropwise into a 15 mL centrifuge tube containing 8 mL of warm culture medium in a clean bench. The tubes were centrifuged at 900 rpm for 5 minutes, the supernatant was discarded, and the cells were resuspended in 1 mL of complete culture medium (by pipetting 15 times). 20 µL of the suspension was immediately taken and mixed with an equal volume of trypan blue. 20 µL was taken to count the number of live cells, and the cells were diluted to 4×10^5 cells/mL with complete culture medium. • 4) The 384-well plate was divided into GLP-1R cell, GCGR cell and GIPR cell areas. The cell suspension was added to the wells of the corresponding area at 5 µL per well using a 12-channel variable-channel adjustable dispenser. […] Then, the diluted cAMP-d2 working solution and anti-cAMP-crytate working solution were mixed evenly in a ratio of 1:1, and 10 µL was added to each well of the sample group. The wells were covered with white lids and placed at room temperature in the dark for 1 hour or at 4 °C overnight. • 6) The fluorescence values at 665 nm and 620 nm were detected in a multifunctional microplate reader. In GraphPad Prism 6, the signal ratio and sample concentration were nonlinearly fitted using a four-parameter equation to obtain the EC50 value.

GIPR = biological target: T2, GIPR (Homo sapiens, UniProt P48546); assay: In vitro cell activity, cAMP production in HEK293 cells expressing GIPR; conditions: HEK293-GIPR cells, cAMP; read-out: GIPR (EC50)
T2 construct: expressed in transfected cells; host or cells: HEK293 (HEK293-GIPR)
T2 sequence (P48546 22-466): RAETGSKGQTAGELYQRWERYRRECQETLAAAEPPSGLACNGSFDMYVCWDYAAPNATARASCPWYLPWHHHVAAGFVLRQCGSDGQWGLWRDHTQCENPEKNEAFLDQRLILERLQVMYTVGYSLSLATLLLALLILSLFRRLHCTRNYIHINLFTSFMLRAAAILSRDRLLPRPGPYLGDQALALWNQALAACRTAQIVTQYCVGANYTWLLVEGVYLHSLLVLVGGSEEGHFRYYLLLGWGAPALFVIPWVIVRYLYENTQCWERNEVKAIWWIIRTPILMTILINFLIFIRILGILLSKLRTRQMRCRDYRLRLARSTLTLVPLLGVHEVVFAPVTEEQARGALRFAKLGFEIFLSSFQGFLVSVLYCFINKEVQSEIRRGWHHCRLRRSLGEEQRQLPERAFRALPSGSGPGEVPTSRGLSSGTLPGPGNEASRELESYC
Description: as §1, with “The wells were covered with white lids and placed at room temperature in the dark for 1 hour or at 4 °C overnight. • 6) The fluorescence values at 665 nm and 620 nm were detected in a multifunctional microplate reader.” left out

GLP-1R = biological target: T3, GLP-1R (Homo sapiens, UniProt P43220); assay: In vitro cell activity, cAMP production in HEK293 cells expressing GLP-1R; conditions: HEK293-GLP-1R cells, cAMP; read-out: GLP-1R (EC50)
T3 construct: expressed in transfected cells; host or cells: HEK293 (HEK293-GLP-1R)
T3 sequence (P43220 24-463, species assumed): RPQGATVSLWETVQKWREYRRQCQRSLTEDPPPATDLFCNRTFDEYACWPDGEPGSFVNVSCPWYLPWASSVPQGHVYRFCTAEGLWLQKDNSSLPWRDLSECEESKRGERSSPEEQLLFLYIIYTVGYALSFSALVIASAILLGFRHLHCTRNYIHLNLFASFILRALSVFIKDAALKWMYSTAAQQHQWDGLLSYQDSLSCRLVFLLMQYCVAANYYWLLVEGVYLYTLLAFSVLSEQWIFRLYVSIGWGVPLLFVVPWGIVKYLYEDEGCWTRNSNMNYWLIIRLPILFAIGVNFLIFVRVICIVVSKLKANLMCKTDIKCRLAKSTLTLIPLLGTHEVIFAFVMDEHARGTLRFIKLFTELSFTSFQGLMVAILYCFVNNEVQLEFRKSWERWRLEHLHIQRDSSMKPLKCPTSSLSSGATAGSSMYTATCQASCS
Description: as §1

CC[C@H](C)[C@H](NC(=O)[C@H](CCC(=O)O)NC(=O)[C@H](CC(=O)O)NC(=O)[C@H](CC(C)C)NC(=O)[C@H](CC(C)C)NC(=O)[C@@H](NC(=O)[C@H](CO)NC(=O)[C@H](Cc1ccc(O)cc1)NC(=O)[C@H](CC(=O)O)NC(=O)[C@H](CO)NC(=O)[C@@H](NC(=O)[C@](C)(Cc1ccccc1F)NC(=O)[C@@H](NC(=O)CNC(=O)[C@H](CCC(N)=O)NC(=O)C(C)(C)NC(=O)[C@@H](N)Cc1c[nH]cn1)[C@@H](C)O)[C@@H](C)O)[C@@H](C)CC)C(=O)N[C@@H](C)C(=O)N[C@@H](CCC(N)=O)C(=O)N[C@@H](CCCCNC(=O)COCCOCCNC(=O)COCCOCCNC(=O)CC[C@H](NC(=O)CCCCCCCCCCCCCCCCCCC(=O)O)C(=O)O)C(=O)N[C@@H](CC(=O)O)C(=O)N[C@@H](Cc1ccccc1)C(=O)N[C@H](C(=O)N[C@@H](CCC(=O)O)C(=O)N[C@@H](Cc1c[nH]c2ccccc12)C(=O)N[C@@H](CC(C)C)C(=O)N[C@@H](CC(C)C)C(=O)N[C@@H](CCC(=O)O)C(=O)NCC(=O)NCC(=O)N1CCC[C@H]1C(=O)N[C@@H](CO)C(=O)N[C@@H](CO)C(=O)NCC(=O)N[C@@H](C)C(=O)N1CCC[C@H]1C(=O)N1CCC[C@H]1C(=O)N1CCC[C@H]1C(=O)N[C@@H](CO)C(=O)O)[C@@H](C)CC [HEC-PT67] (H-H[Aib]QGT[αMePhe(2-F)]TSDYSILLDEIAQK([AEEA-AEEA-γGlu-C20 diacid])DFIEWLLEGGPSSGAPPPS-OH)
EC50 (GCGR): 57 nM
EC50 (GIPR): 0.402 nM
EC50 (GLP-1R): 0.679 nM

CC[C@H](C)[C@H](NC(=O)[C@H](Cc1ccccc1)NC(=O)[C@H](C)NC(=O)[C@H](CCC(N)=O)NC(=O)[C@H](CCC(N)=O)NC(=O)[C@H](C)NC(=O)[C@H](CCCCNC(=O)COCCOCCNC(=O)CC[C@H](NC(=O)CCCCCCCCCCCCCCCCCCC(=O)O)C(=O)O)NC(=O)[C@H](CCC(=O)O)NC(=O)[C@H](CC(=O)O)NC(=O)[C@H](CC(C)C)NC(=O)[C@H](CC(C)C)NC(=O)[C@@H](NC(=O)[C@H](CO)NC(=O)[C@H](Cc1ccc(O)cc1)NC(=O)[C@H](CC(=O)O)NC(=O)[C@H](CO)NC(=O)[C@@H](NC(=O)[C@](C)(Cc1ccccc1F)NC(=O)[C@@H](NC(=O)CNC(=O)[C@H](CCC(N)=O)NC(=O)C(C)(C)NC(=O)[C@@H](N)Cc1ccc(O)cc1)[C@@H](C)O)[C@@H](C)O)[C@@H](C)CC)C(=O)N[C@@H](CCC(=O)O)C(=O)N[C@@H](Cc1ccc(O)cc1)C(=O)N[C@@H](CC(C)C)C(=O)N[C@@H](CC(C)C)C(=O)N[C@@H](CCC(=O)O)C(=O)NCC(=O)NCC(=O)N1CCC[C@H]1C(=O)N[C@@H](CO)C(=O)N[C@@H](CO)C(=O)NCC(=O)N[C@@H](C)C(=O)N1CCC[C@H]1C(=O)N1CCC[C@H]1C(=O)N1CCC[C@H]1C(=O)N[C@@H](CO)C(=O)O [HEC-PT68]
EC50 (GCGR): 0.748 nM
EC50 (GIPR): 0.199 nM
EC50 (GLP-1R): 0.415 nM

CC[C@H](C)[C@H](NC(=O)[C@H](CC(C)C)NC(=O)[C@H](Cc1c[nH]c2ccccc12)NC(=O)[C@H](CCC(=O)O)NC(=O)[C@@H](NC(=O)[C@H](Cc1ccccc1)NC(=O)[C@H](CC(=O)O)NC(=O)[C@H](CCC(N)=O)NC(=O)[C@H](CCC(N)=O)NC(=O)[C@H](C)NC(=O)[C@H](CCCCNC(=O)COCCOCCNC(=O)CC[C@H](NC(=O)CCCCCCCCCCCCCCCCCCC(=O)O)C(=O)O)NC(=O)[C@H](CCC(=O)O)NC(=O)[C@H](CC(=O)O)NC(=O)[C@H](CC(C)C)NC(=O)[C@H](CC(C)C)NC(=O)[C@@H](NC(=O)[C@H](CO)NC(=O)[C@H](Cc1ccc(O)cc1)NC(=O)[C@H](CC(=O)O)NC(=O)[C@H](CO)NC(=O)[C@@H](NC(=O)[C@](C)(Cc1ccccc1F)NC(=O)[C@@H](NC(=O)CNC(=O)[C@H](CCC(N)=O)NC(=O)C(C)(C)NC(=O)[C@@H](N)Cc1ccc(O)cc1)[C@@H](C)O)[C@@H](C)O)[C@@H](C)CC)[C@@H](C)CC)C(=O)N[C@@H](C)C(=O)NCC(=O)NCC(=O)N1CCC[C@H]1C(=O)N[C@@H](CO)C(=O)N[C@@H](CO)C(=O)NCC(=O)N[C@@H](C)C(=O)N1CCC[C@H]1C(=O)N1CCC[C@H]1C(=O)N1CCC[C@H]1C(=O)N[C@@H](CO)C(=O)O [HEC-PT69]
EC50 (GCGR): 30.8 nM
EC50 (GIPR): 0.419 nM
EC50 (GLP-1R): 2.18 nM

CC[C@H](C)[C@H](NC(=O)[C@H](CC(C)C)NC(=O)[C@H](Cc1c[nH]c2ccccc12)NC(=O)[C@H](CCC(=O)O)NC(=O)[C@@H](NC(=O)[C@H](Cc1ccccc1)NC(=O)[C@H](CCC(=O)O)NC(=O)[C@H](CCCCNC(=O)COCCOCCNC(=O)COCCOCCNC(=O)CC[C@H](NC(=O)CCCCCCCCCCCCCCCCCCC(=O)O)C(=O)O)NC(=O)[C@H](C)NC(=O)[C@H](C)NC(=O)[C@H](CCCNC(=N)N)NC(=O)[C@H](CCC(=O)O)NC(=O)[C@H](CC(=O)O)NC(=O)[C@H](CC(C)C)NC(=O)[C@H](CC(C)C)NC(=O)[C@@H](NC(=O)[C@H](CO)NC(=O)[C@H](Cc1ccc(O)cc1)NC(=O)[C@H](CC(=O)O)NC(=O)[C@H](CO)NC(=O)[C@@H](NC(=O)[C@](C)(Cc1ccccc1F)NC(=O)[C@@H](NC(=O)CNC(=O)[C@H](CCC(N)=O)NC(=O)C(C)(C)NC(=O)[C@@H](N)Cc1ccc(O)cc1)[C@@H](C)O)[C@@H](C)O)[C@@H](C)CC)[C@@H](C)CC)C(=O)N[C@@H](C)C(=O)NCC(=O)NCC(=O)N1CCC[C@H]1C(=O)N[C@@H](CO)C(=O)N[C@@H](CO)C(=O)NCC(=O)N[C@@H](C)C(=O)N1CCC[C@H]1C(=O)N1CCC[C@H]1C(=O)N1CCC[C@H]1C(=O)N[C@@H](CO)C(=O)O [HEC-PT71] (H-Y[Aib]QGT[αMePhe(2-F)]TSDYSILLDERAAK([AEEA-AEEA-γGlu-C20 diacid])EFIEWLIAGGPSSGAPPPS-OH)
EC50 (GCGR): 5.39 nM
EC50 (GIPR): 0.464 nM
EC50 (GLP-1R): 0.336 nM

CC[C@H](C)[C@H](NC(=O)[C@H](Cc1ccccc1)NC(=O)[C@H](C)NC(=O)[C@H](CCC(N)=O)NC(=O)[C@H](CCC(N)=O)NC(=O)[C@H](C)NC(=O)[C@H](CCCCNC(=O)COCCOCCNC(=O)CC[C@H](NC(=O)CCCCCCCCCCCCCCCCCCC(=O)O)C(=O)O)NC(=O)[C@H](CCC(=O)O)NC(=O)[C@H](CC(=O)O)NC(=O)[C@H](CC(C)C)NC(=O)[C@H](CC(C)C)NC(=O)[C@@H](NC(=O)[C@H](CO)NC(=O)[C@H](Cc1ccc(O)cc1)NC(=O)[C@H](CC(=O)O)NC(=O)[C@H](CO)NC(=O)[C@@H](NC(=O)[C@](C)(Cc1ccccc1F)NC(=O)[C@@H](NC(=O)CNC(=O)[C@H](Cc1c[nH]cn1)NC(=O)C(C)(C)NC(=O)[C@@H](N)Cc1ccc(O)cc1)[C@@H](C)O)[C@@H](C)O)[C@@H](C)CC)C(=O)N[C@@H](CCC(=O)O)C(=O)N[C@@H](Cc1ccc(O)cc1)C(=O)N[C@@H](CC(C)C)C(=O)N[C@@H](CC(C)C)C(=O)N[C@@H](C)C(=O)NCC(=O)NCC(=O)N1CCC[C@H]1C(=O)N[C@@H](CO)C(=O)N[C@@H](CO)C(=O)NCC(=O)N[C@@H](C)C(=O)N1CCC[C@H]1C(=O)N1CCC[C@H]1C(=O)N1CCC[C@H]1C(=O)N[C@@H](CO)C(=O)O [HEC-PT81]
EC50 (GCGR): 0.382 nM
EC50 (GIPR): 0.132 nM
EC50 (GLP-1R): 0.409 nM
